Data reported in patent publication US10227360B2, “Compounds for use as GPR120 agonists” (PIRAMAL ENTERPRISES LIMITED, priority 2014, dated 2019).

biological target: GPR120L receptor (Homo sapiens (Human), UniProt Q5NUL3); assay: Beta (β) arrestin 2 Interaction Assay (BRET assay), β-galactosidase enzyme fragment complementation; type: cell-based; settings: CHO-K1 cells stably expressing the GPR120L receptor; β-arrestin recruitment; 2 hours incubation
Procedure: Beta (β) arrestin 2 Interaction Assay (BRET assay) was performed using CHO-K1 cells stably expressing the GPR120L receptor using β-galactosidase (Beta gal) enzyme fragment complementation assay. The measurement of GPR120 activation upon agonist activation was directly provided by β-arrestin recruitment. One day before the β-arrestin 2 assay, CHO-K1 cells were seeded and incubated overnight at 37° C. in a 5% CO2 humidified atmosphere. Cells were treated with the test compounds in the various concentrations ranging from 30 μM to 1 nM and incubated for 2 hours for GPCR (GPR120) activation. Extent of Arrestin recruitment was measured by adding detection reagents for Beta gal complementation assay and was further incubated for 1 hour. The chemi-luminescent signal was detected on Polar Star (BMG Labtech). The dose-response curve was analyzed using Sigma Plot/Graph Pad. The EC50 (concentration of the test compounds where 50% of compounds' maximal activity is observed) values were calculated from the dose-response curve.

Chain of GPR120L receptor (Q5NUL3 other isoform, or with tags, fused parts or gaps): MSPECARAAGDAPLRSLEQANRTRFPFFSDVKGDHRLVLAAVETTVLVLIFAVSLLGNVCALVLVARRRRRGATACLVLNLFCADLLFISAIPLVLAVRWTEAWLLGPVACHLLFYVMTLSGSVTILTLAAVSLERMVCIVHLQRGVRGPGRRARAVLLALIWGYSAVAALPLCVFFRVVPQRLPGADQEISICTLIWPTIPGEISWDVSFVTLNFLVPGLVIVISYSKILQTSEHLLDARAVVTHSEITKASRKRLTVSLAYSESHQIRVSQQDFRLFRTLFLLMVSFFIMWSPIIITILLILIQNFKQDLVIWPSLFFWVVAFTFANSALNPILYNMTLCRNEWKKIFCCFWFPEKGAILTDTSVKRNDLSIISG

EC50 [nM]	SMILES
500 to 5000	N#CC1(c2ccc(-c3ccc(F)cc3COc3ccc(CCC(=O)O)cc3)s2)CC1 [Example 2, 3-(4-((2-(5-(1-Cyanocyclopropyl)thiophen-2-yl)-5-fluorobenzyl)oxy)phenyl)propanoic acid]
10 to 500	O=C(O)CCCc1ccc(OCc2ccccc2-c2ccc3c(c2)CC3)cc1 [Example 26, 4-(4-((2-(Bicyclo[4.2.0]octa-1(6),2,4-trien-3-yl)benzyl)oxy)phenyl)butanoic acid]
10 to 500	O=C(O)CCCc1ccc(OCc2cc(F)ccc2-c2nc3c(s2)COCC3)cc1 [Example 49, 4-(4-((2-(6,7-Dihydro-4H-pyrano[4,3-d]thiazol-2-yl)-5-fluorobenzyl)oxy)phenyl)butanoic acid]
10 to 500	O=C(O)CCCc1ccc(OCc2cc(F)ccc2-c2nc3c(s2)CCCCC3)cc1 [Example 41, 4-(4-((5-Fluoro-2-(5,6,7,8-tetrahydro-4H-cyclohepta[d]thiazol-2-yl)benzyl)oxy)phenyl)butanoic acid]
10 to 500	O=C(O)CCCc1ccc(OCc2cc(F)ccc2-c2ccc(C3CCC3)s2)cc1 [Example 28, 4-(4-((2-(5-Cyclobutylthiophen-2-yl)-5-fluorobenzyl)oxy)phenyl)butanoic acid]
500 to 5000	O=C(O)CCCc1ccc(OCc2cc(F)ccc2-c2ccc(C3CCCCC3)cc2)cc1 [Example 16, 4-(4-((4′-Cyclohexyl-4-fluoro-[1,1′-biphenyl]-2-yl)methoxy)phenyl)butanoic acid]
10 to 500	Cc1cc(-c2ccc(F)cc2COc2ccc(CCCC(=O)O)cc2)ccc1C1CC1 [Example 29, 4-(4-((4′-cyclopropyl-4-fluoro-3′-methyl-[1,1′-biphenyl]-2-yl)methoxy)phenyl)butanoic acid]
10 to 500	O=C(O)CCCc1ccc(OCc2cc(F)ccc2-c2cnc(C3CC3)nc2)cc1 [Example 31, 4-(4-((2-(2-Cyclopropylpyrimidin-5-yl)-5-fluorobenzyl)oxy)phenyl)butanoic acid]
500 to 5000	N#CC1(c2ccc(-c3ccncc3COc3ccc(CCCC(=O)O)cc3)cc2)CC1 [Example 19, 4-(4-((4-(4-(1-Cyanocyclopropyl)phenyl)pyridin-3-yl)methoxy)phenyl)butanoic acid]
10 to 500	N#CC1(c2ccc(-c3ccc(F)cc3COc3ccc(CCC(=O)O)cc3)cc2)CC1 [Example 5, 3-(4-((4′-(1-Cyanocyclopropyl)-4-fluoro-[1,1′-biphenyl]-2-yl)methoxy)phenyl)propanoic acid]
10 to 500	O=C(O)CCCc1ccc(OCc2cc(F)ccc2-c2ncc(C3CC3)s2)cc1 [Example 45, 4-(4-((2-(5-Cyclopropylthiazol-2-yl)-5-fluorobenzyl)oxy)phenyl)butanoic acid]
10 to 500	O=C(O)CCCc1ccc(OCc2cc(F)ccc2-c2nnc(C3CC3)s2)cc1 [Example 44, 4-(4-((2-(5-Cyclopropyl-1,3,4-thiadiazol-2-yl)-5-fluorobenzyl)oxy)phenyl)butanoic acid]
500 to 5000	O=C(O)CCCc1ccc(OCc2cc(F)ccc2-c2nc3c(s2)COCC3)cc1 [Example 48, 4-(4-((2-(6,7-Dihydro-4H-pyrano[4,3-d]thiazol-2-yl)-5-fluorobenzyl)oxy)phenyl)butanoic acid]
5000 to 50000	O=C(O)CCCc1ccc(OCc2cc(F)ccc2-c2scnc2C2CC2)cc1 [Example 32, 4-(4-((2-(4-Cyclopropylthiazol-5-yl)-5-fluorobenzyl)oxy)phenyl)butanoic acid]
10 to 500	O=C(O)CCCc1ccc(OCc2ccccc2-c2ccc3c(c2)CCCC3)cc1 [Example 27, 4-(4-((2-(5,6,7,8-tetrahydronaphthalen-2-yl)benzyl)oxy)phenyl)butanoic acid]
5000 to 50000	COC1CCCc2cc(-c3ccc(F)cc3COc3ccc(CCCC(=O)O)cc3)ccc21 (stereo not drawn) [Example 38, 4-(4-((5-Fluoro-2-(5-methoxy-5,6,7,8-tetrahydronaphthalen-2-yl)benzyl)oxy)phenyl)butanoic acid]
10 to 500	O=C(O)CCCc1ccc(OCc2cc(F)ccc2-c2nc3c(s2)CCC3)cc1 [Example 47, 4-(4-((2-(5,6-dihydro-4H-cyclopenta[d]thiazol-2-yl)-5-fluorobenzyl)oxy)phenyl)butanoic acid]
10 to 500	O=C(O)CCCc1ccc(OCc2cc(F)ccc2-c2ccc3c(c2)CCCC3)cc1 [Example 9, 4-(4-((5-Fluoro-2-(5,6,7,8-tetrahydronaphthalen-2-yl)benzyl)oxy)phenyl)butanoic acid]
5000 to 50000	N#CC1(c2ccc(-c3ncccc3COc3ccc(CCC(=O)O)cc3)cc2)CC1 [Example 21, 3-(4-((2-(4-(1-Cyanocyclopropyl)phenyl)pyridin-3-yl)methoxy)phenyl)propanoic acid]

EC50 [nM]	SMILES
5000 to 50000	CC1(C)CCC=C1c1ccc(-c2ccc(F)cc2COc2ccc(CCC(=O)O)cc2)cc1 [Example 15, 3-(4-((4′-(5,5-Dimethylcyclopent-1-en-1-yl)-4-fluoro-[1,1′-biphenyl]-2-yl)methoxy)phenyl)propanoic acid]
10 to 500	O=C(O)CCCc1ccc(OCc2cc(F)ccc2-c2cc3c(s2)CCCC3)cc1 [Example 23, 4-(4-((5-Fluoro-2-(4,5,6,7-tetrahydrobenzo[b]thiophen-2-yl)benzyl)oxy)phenyl)butanoic acid]
500 to 5000	O=C(O)CCc1ccc(OCc2cc(F)ccc2-c2ccc(C3(O)CCC3)cc2)cc1 [Example 14, 3-(4-((4-Fluoro-4′-(1-hydroxycyclobutyl)-[1,1′-biphenyl]-2-yl)methoxy)phenyl)propanoic acid]
10 to 500	O=C(O)CCCc1ccc(OCc2cc(F)ccc2-c2ccc(C3CC3)s2)cc1 [Example 11, 4-(4-((2-(5-Cyclopropylthiophen-2-yl)-5-fluorobenzyl)oxy)phenyl)butanoic acid]
10 to 500	O=C(O)CCCc1ccc(OCc2cc(F)ccc2-c2ccc(C3CC3)cc2)cc1 [Example 7, 4-(4-((4′-Cyclopropyl-4-fluoro-[1,1′-biphenyl]-2-yl)methoxy)phenyl)butanoic acid]
5000 to 50000	O=C(O)CCc1ccc(OCc2cc(F)ccc2-c2ccc(C3COC3)nc2)cc1 [Example 17, 3-(4-((5-Fluoro-2-(6-(oxetan-3-yl)pyridin-3-yl)benzyl)oxy)phenyl)propanoic acid]
500 to 5000	O=C(O)CCCc1ccc(OCc2cc(F)ccc2-c2ccc(C3(O)CCC3)s2)cc1 [Example 12, 4-(4-((5-Fluoro-2-(5-(1-hydroxycyclobutyl)thiophen-2-yl)benzyl)oxy)phenyl)butanoic acid]
5000 to 50000	O=C(O)CCc1ccc(OCc2cc(F)ccc2-c2ccc(C3COC3)cc2)cc1 [Example 13, 3-(4-((4-Fluoro-4′-(oxetan-3-yl)-[1,1′-biphenyl]-2-yl)methoxy)phenyl)propanoic acid]
10 to 500	N#CC1(c2ccc(-c3ccc(F)cc3COc3ccc(CCCC(=O)O)cc3)cc2)CC1 [Example 4, 4-(4-((4′-(1-Cyanocyclopropyl)-4-fluoro-[1,1′-biphenyl]-2-yl)methoxy)phenyl)butanoic acid]
10 to 500	CC1(c2ccc(-c3ccc(F)cc3COc3ccc(CCCC(=O)O)cc3)s2)CC1 [Example 40, 4-(4-((5-Fluoro-2-(5-(1-methylcyclopropyl)thiophen-2-yl)benzyl)oxy)phenyl)butanoic acid]
10 to 500	O=C(O)CCCc1ccc(OCc2cc(F)ccc2-c2ccc(C3CC3(F)F)cc2)cc1 (stereo not drawn) [Example 43, 4-(4-((4′-(2,2-Difluorocyclopropyl)-4-fluoro-[1,1′-biphenyl]-2-yl)methoxy)phenyl)butanoic acid]
500 to 5000	N#CC1(c2ccc(-c3ccc(F)cc3COc3ccc(CCC(=O)O)cc3)cn2)CC1 [Example 6, 3-(4-((2-(6-(1-Cyanocyclopropyl)pyridin-3-yl)-5-fluorobenzyl)oxy)phenyl)propanoic acid]
10 to 500	O=C(O)CCCc1ccc(OCc2cc(F)ccc2-c2cnc3c(c2)CCC3)cc1 [Example 24, 4-(4-((2-(6,7-Dihydro-5H-cyclopenta[b]pyridin-3-yl)-5-fluorobenzyl)oxy)phenyl)butanoic acid]
500 to 5000	O=C(O)CCCc1ccc(OCc2cc(F)ccc2-c2nc(C3CC3)cs2)cc1 [Example 50, 4-(4-((2-(4-Cyclopropylthiazol-2-yl)-5-fluorobenzyl)oxy)phenyl)butanoic acid]
10 to 500	CC1(c2ccc(-c3ccc(F)cc3COc3ccc(CCCC(=O)O)cc3)cc2)CC1 [Example 3, 4-(4-((4-Fluoro-4′-(1-methylcyclopropyl)-[1,1′-biphenyl]-2-yl)methoxy)phenyl)butanoic acid]
500 to 5000	O=C(O)CCCc1ccc(OCc2cc(F)ccc2-c2ccc3c(c2)CCCC3=O)cc1 [Example 34, 4-(4-((5-Fluoro-2-(5-oxo-5,6,7,8-tetrahydronaphthalen-2-yl)benzyl)oxy)phenyl)butanoic acid]
10 to 500	O=C(O)CCCc1ccc(OCc2cc(F)ccc2-c2ccc3c(c2)CCO3)cc1 [Example 22, 4-(4-((2-(2,3-Dihydrobenzofuran-5-yl)-5-fluorobenzyl)oxy)phenyl)butanoic acid]
10 to 500	O=C(O)CCCc1ccc(OCc2cc(F)ccc2-c2ccc3c(c2)CCC3)cc1 [Example 8, 4-(4-((2-(2,3-Dihydro-1H-inden-5-yl)-5-fluorobenzyl)oxy)phenyl)butanoic acid]
10 to 500	C=C1CCCc2cc(-c3ccc(F)cc3COc3ccc(CCCC(=O)O)cc3)ccc21 [Example 36, 4-(4-((5-Fluoro-2-(5-methylene-5,6,7,8-tetrahydronaphthalen-2-yl)benzyl)oxy)phenyl)butanoic acid]

SMILES	EC50 [nM]
CC1=CCCc2cc(-c3ccc(F)cc3COc3ccc(CCCC(=O)O)cc3)ccc21 [Example 37]	500 to 5000
